Experimental data from article PMC8394412, “Identification and Characterization of Cannabidiol as an OX1R Antagonist by Computational and In Vitro Functional Validation” (Biomolecules, 2021).

Target: T1, orexin 1 receptor (OX1R) (Homo sapiens, UniProt O43613)
T1 construct: gene HCRTR1
T1 sequence (O43613 1-425): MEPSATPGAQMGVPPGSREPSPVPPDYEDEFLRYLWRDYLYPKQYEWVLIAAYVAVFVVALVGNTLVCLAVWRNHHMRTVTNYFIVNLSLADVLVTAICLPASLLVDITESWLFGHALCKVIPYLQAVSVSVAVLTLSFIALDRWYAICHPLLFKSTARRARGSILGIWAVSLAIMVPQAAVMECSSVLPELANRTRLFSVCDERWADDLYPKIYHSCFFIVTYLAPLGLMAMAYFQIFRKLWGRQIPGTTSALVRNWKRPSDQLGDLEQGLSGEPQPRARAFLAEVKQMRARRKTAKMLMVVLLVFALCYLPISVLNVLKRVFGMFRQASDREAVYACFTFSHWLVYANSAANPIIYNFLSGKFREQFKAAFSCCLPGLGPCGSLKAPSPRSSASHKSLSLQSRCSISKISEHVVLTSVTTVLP
Experiment: […]orexin-A radioligand displacement on OX1R-CHO membranes; functional Ca2+ antagonism IC50 […]
Format: binding

## C=C(C)[C@@H]1CCC(C)=C[C@H]1c1c(O)cc(CCCCC)cc1O [CBD, cannabidiol]
  Ki: 1580 ± 200 nM
